Each molecule was assayed on U23674 (mouse alveolar rhabdomyosarcoma primary culture).

| SMILES | IC50 cell viability |
| --- | --- |
| NS(=O)(=O)c1ccc(N=Nc2c(O)[nH]c3cccc(CCc4ccncc4)c23)cc1 | > 10 µM |
| NS(=O)(=O)c1ccc(N=Nc2c(O)[nH]c3ccc(C(=O)NCCc4cnc[nH]4)cc23)cc1 | > 10 µM |
| CS(=O)(=O)Nc1ccc(-c2cc(-c3ccccc3)cc(C(N)=O)c2N)cc1 | > 10 µM |
| COc1cc2ncn(-c3cc(OCc4ccccc4S(C)(=O)=O)c(C#N)s3)c2cc1OC | > 10 µM |
| CNC(=O)c1cncc(/C=C/c2ccccc2Cl)c1 | > 10 µM |
| CN1CCC(n2cnc(-c3ccc(F)cc3)c2-c2ccnc(N)n2)CC1 | > 10 µM |
| NS(=O)(=O)c1ccc(N=Nc2c(O)[nH]c3ccc(-c4cnco4)cc23)cc1 | > 10 µM |
| Nc1nonc1-c1nc2cnccc2n1C1CC1 | > 10 µM |
| NS(=O)(=O)c1ccc(-c2ccc3c(NC(=O)C4CC4)n[nH]c3c2)cc1 | > 10 µM |
| O=C1NC(=O)C(c2ccc(Cl)cc2)=C1Nc1ccc(Cl)c(C(=O)O)c1 | 3.9 µM |
| COC(=O)c1sc(-n2cnc3cc(OC)c(OC)cc32)cc1OCc1ccccc1C(F)(F)F | > 10 µM |
| Fc1ccc(-c2cc(-c3cn[nH]c3-c3ccccn3)ccn2)cc1 | > 10 µM |
| N#Cc1c(NC(=O)CN2CCOCC2)sc2c1CCCC2 | > 10 µM |
| CN(C)c1ccc2[nH]c(O)c(C=Nc3ccc(S(N)(=O)=O)cc3)c2c1 | > 10 µM |
| CNC(=O)c1ncccc1Nc1nc(Nc2cc3c(cc2OC)CCCN3C(=O)CN(C)C)nc2[nH]ccc12 | > 10 µM |
| NC(=O)c1cccc(Nc2nccc(Nc3cccc4[nH]ncc34)n2)c1 | > 10 µM |
| CS(=O)(=O)CCNCc1cc(-c2cc3c(Nc4ccc(OCc5cccc(F)c5)c(Cl)c4)ncnc3s2)cs1 | > 10 µM |
| Clc1ccc(-c2nn3ncccc3c2-c2ccnc(Nc3ccccc3)n2)cc1 | > 10 µM |
| COc1ccc(C2=C(N3CCc4ccccc43)C(=O)NC2=O)cc1 | > 10 µM |
| Fc1ccc(-c2nn3ccccc3c2-c2ccncc2)cc1 | > 10 µM |

| SMILES | IC50 cell viability |
| --- | --- |
| CCc1nccc2c1nc(-c1nonc1N)n2CC | > 10 µM |
| O=C(Nc1n[nH]c2cc(-c3cc(F)ccc3F)ccc12)C1CC1 | > 10 µM |
| Cc1ccc(C(=O)NC2CCCCC2)cc1-c1ccc(C(=O)NCC2CC2)cc1 | > 10 µM |
| O=c1[nH]c2ccc(N=Cc3c(O)[nH]c4ccccc34)cc2[nH]1 | > 10 µM |
| CCCN1CCC(c2ccc(Nc3nc(Nc4cc(F)ccc4C(N)=O)c4cc[nH]c4n3)c(OC)c2)CC1 | > 10 µM |
| CCn1c(-c2nonc2N)nc2cnc(Oc3cccc(NC(=O)c4ccc(N(C)C)cc4)c3)cc21 | > 10 µM |
| CCN1CCC(C(=O)Nc2n[nH]c3nnc(-c4cccc(F)c4F)cc23)CC1 | > 10 µM |
| COc1ccc2ncn(-c3cc(O[C@H](C)c4ccccc4Cl)c(C(N)=O)s3)c2c1 | 2 µM |
| COc1cc2c(cc1Nc1nc(Nc3ccsc3C(N)=O)c3cc[nH]c3n1)N(C(=O)CN(C)C)CCC2(C)C | 0.4 µM |
| CCS(=O)(=O)c1ccc(OC)c(Nc2nccc(N(C)c3ccc4c(C)[nH]nc4c3)n2)c1 | > 10 µM |
| Fc1ccc(-c2ncn(C3CCNCC3)c2-c2ccnc(Oc3ccc(Oc4ccccc4)cc3)n2)cc1 | 2 µM |
| O=C(Nc1ccc(Oc2ccc3nc(NC(=O)c4ccco4)[nH]c3c2)cc1)Nc1cc(C(F)(F)F)ccc1F | > 10 µM |
| ON=C1CCc2cc(-c3nc(C4CCNCC4)[nH]c3-c3ccncc3)ccc21 | > 10 µM |
| COc1cc(Nc2ncc(-c3ccccc3)o2)cc(OC)c1 | > 10 µM |
| Cn1cc(C=C2C(=O)Nc3cccnc32)c2ccccc21 | > 10 µM |
| CNC(=O)Oc1cc(C)c(/C=C/c2cncc(C(=O)NC)c2)c(C)c1 | > 10 µM |
| O=C1NC(=O)C(N2CCc3ccccc32)=C1c1ccc(Cl)cc1 | > 10 µM |
| Nc1nc(-c2ccc(F)cc2)c(-c2ccc3ncccc3n2)s1 | > 10 µM |
| COc1cc2ncnc(Nc3ccc4c(cnn4Cc4ccccc4)c3)c2cc1OC | > 10 µM |

The molecules below were run on PCB490-4 (human epithelioid sarcoma primary culture).
Procedure: (§1)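 Roche open-access kinase inhibitor screen (223 compounds) on human epithelioid sarcoma primary cultures from three spatially distinct regions of tumor PCB490. 384-well plates, 72 h, CellTiter-Glo viability; IC50 by Hill curve fit. 100000 nM = no IC50 reached. Compound ids carry a plate-well prefix, which is stripped.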

| SMILES | IC50 cell viability |
| --- | --- |
| COc1ccc(CCN=C2NC(=O)/C(=C/c3ccc4ncccc4c3)S2)cc1 | > 100 µM |
| O=C1NC(=NCCc2ccc(Br)cc2)S/C1=C\c1ccc2ncccc2c1 | > 100 µM |
| O=c1[nH]c2nc(NC3CCOCC3)ncc2cc1Oc1ccc(F)cc1F | > 100 µM |
| CN1CCN(c2ccc(Nc3nc(N)c(C(=O)c4ccc5c(c4)OCCO5)s3)cc2)CC1 | > 100 µM |

These molecules were tested on PCB490-3 (human epithelioid sarcoma primary culture).
Procedure: as §1

| SMILES | IC50 cell viability |
| --- | --- |
| COc1ccc(CCN=C2NC(=O)/C(=C/c3ccc4ncccc4c3)S2)cc1 | > 100 µM |
| O=C1NC(=NCCc2ccc(Br)cc2)S/C1=C\c1ccc2ncccc2c1 | > 100 µM |
| O=c1[nH]c2nc(NC3CCOCC3)ncc2cc1Oc1ccc(F)cc1F | > 100 µM |
| CN1CCN(c2ccc(Nc3nc(N)c(C(=O)c4ccc5c(c4)OCCO5)s3)cc2)CC1 | > 100 µM |

These molecules were tested on PCB490-5 (human epithelioid sarcoma primary culture).
Procedure: as §1

| SMILES | IC50 cell viability |
| --- | --- |
| COc1ccc(CCN=C2NC(=O)/C(=C/c3ccc4ncccc4c3)S2)cc1 | > 100 µM |
| O=C1NC(=NCCc2ccc(Br)cc2)S/C1=C\c1ccc2ncccc2c1 | > 100 µM |
| O=c1[nH]c2nc(NC3CCOCC3)ncc2cc1Oc1ccc(F)cc1F | > 100 µM |
| CN1CCN(c2ccc(Nc3nc(N)c(C(=O)c4ccc5c(c4)OCCO5)s3)cc2)CC1 | > 100 µM |

— the supplement of paper PMC6580486
